In this assay the target is T1, human GOAT (Homo sapiens, UniProt Q96T53).
T1 construct: made in house; host or cells: Sf9 insect cells (BacToBac baculovirus, pFastBac1 vector); microsome fraction
T1 sequence (Q96T53 1-435): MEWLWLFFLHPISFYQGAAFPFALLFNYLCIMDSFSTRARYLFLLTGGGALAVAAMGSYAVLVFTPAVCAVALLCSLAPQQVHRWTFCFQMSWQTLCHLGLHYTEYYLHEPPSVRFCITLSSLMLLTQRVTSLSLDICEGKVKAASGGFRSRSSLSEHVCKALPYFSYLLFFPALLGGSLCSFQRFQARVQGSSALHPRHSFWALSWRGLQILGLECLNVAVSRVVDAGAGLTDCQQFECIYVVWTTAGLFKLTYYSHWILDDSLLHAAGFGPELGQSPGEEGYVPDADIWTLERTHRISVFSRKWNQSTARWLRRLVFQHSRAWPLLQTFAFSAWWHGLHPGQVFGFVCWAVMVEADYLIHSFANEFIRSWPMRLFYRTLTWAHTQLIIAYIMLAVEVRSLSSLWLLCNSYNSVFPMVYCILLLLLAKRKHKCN
Briefly: GOAT enzyme activity measurement by HTRF method (human GOAT-expressing microsome fraction). It is filed as biochemical. The settings on record: 10 μM compound; human GOAT-expressing Sf9 microsome fraction; octanoyl-CoA and Ghrelin-biotin substrates; 0% control without compound, 100% control without enzyme. On the procedure:
Human GOAT (Accession NO: EU518495) cDNA was amplified by PCR including reaction of (1) 98° C., 1 min, (2) 35 repeats of 98° C., 10 sec·65° C., 15 sec·72° C., 80 sec, and (3) 72° C., 5 min, using human stomach cDNA library (Takara Bio) as a template and Pyrobest DNA Polymerase (Takara Bio). The amplified fragment was treated with restriction enzymes, inserted into Stu I/Not I sites of pFastBacl (Invitrogen) by using Ligation High (TOYOBO), and transfected into ECOS JM109 (Nippon Gene) to construct pFB/hGOAT.
Production of Baculovirus and Preparation of Insect Cell Microsome Fraction
For preparation of baculovirus from pFB/hGOAT, BacToBac baculovirus expression system (Invitrogen) was used. The virus titer was measured by Real-Time PCR using SYBR Green (Takara Bio). Sf9 cells were infected with the obtained baculovirus at Multiplicity of Infection (MOI)=0.2, and cultured for 70 hr. The Sf9 cells were recovered, suspended in a suspension buffer (TBS (0.3 M NaCl), 1 mM DTT, 1 mM EDTA, Complete (Roche) (1 tablet/50 mL)), and the cells were disrupted twice on ice at 20000 rpm, 30 sec using a polytron homogenizer. The cell disruption solution was centrifuged at 1000 rpm for 10 min at 4° C., the supernatant was further ultracentrifuged at 40000 rpm for 30 min at 4° C. and the precipitate was recovered. The obtained precipitate was suspended in the suspension buffer used above to give a human GOAT-expressing microsome fraction. The protein level was measured using BCA Protein assay Reagent (PIERCE).
Enzyme Activity Measurement by HTRF Method
A compound solution (2 μL) diluted with an assay buffer containing 50 mM Tris-HCl (pH 7.5), 0.5% TWEEN20, and Complete to 15% DMSO and 90 μg/mL human GOAT-expressing microsome fraction (2 μL) were incubated at room temperature for 20 min, after which a substrate mixed solution (2 μL) containing 30 μM octanoyl-CoA (CHEM-IMPLEX) and 3 μM Ghrelin-biotin ([…]epsilon aminocaproic acid-biotin (Greiner Coutom synthesis)) was added to 384 white small volume plate (Greiner). After reaction for 20 min, 2 μL of citrate buffer (pH3) (mixed solution of 0.1 M citric acid (39.8 mL) and 0.2 M Na2HPO4 (10.2 mL)), 2 μL of 25 nM anti-active ghrelin antibody (produced in mouse), 5 μL of Eu(K)-Anti Mouse IgG Pab (Cis Bio) 100-fold diluted with HTRF detection buffer (Cis Bio) and 5 μL of streptavidin-Xlent (Cis Bio) 66.6-fold diluted with HTRF detection buffer (Cis Bio) were added. After incubation at room temperature for 1 hr or longer, the fluorescence values at 620 nm and 665 nm were measured by Envision (PerkinElmer). The data was calculated [(665 nm signal/620 nm signal)×10^4], and the inhibitory activity against human GOAT was shown by the data where 0% control was without compound, and 100% control was without enzyme.
On the technique in general: Time-resolved FRET reads energy transfer from a long-lived donor to a nearby acceptor.

A word on the inhibition: it is the drop in the measured response relative to a control, in per cent. In the case of `COC(=O)Cc1coc2c(C)c(OCc3ccc(Cl)cc3Cl)cc(C)c12` [Example 45, Methyl(6-((2,4-dichlorobenzyl)oxy)-4,7-dimethyl-1-benzofuran-3-yl)acetate], the inhibition at 10 µM worked out at 68.7%.

Turning to `Cc1c(OCc2ccc(Cl)cc2Cl)cc(C)c2c(CC(=O)O)coc12` [Example 46, (6-((2,4-Dichlorobenzyl)oxy)-4,7-dimethyl-1-benzofuran-3-yl)acetic acid], the inhibition at 10 µM is 103%. As for `O=C(O)CC1CSc2cc(OCc3ccc(Cl)cc3Cl)ccc21` (centres unmarked) [Example 50, (6-((2,4-Dichlorobenzyl)oxy)-2,3-dihydro-1-benzothiophen-3-yl)acetic acid], the inhibition at 10 µM is 99%. On to `O=C(O)CC1CS(=O)(=O)c2cc(OCc3ccc(Cl)cc3Cl)ccc21` (centres unmarked) [Example 52, (6-((2,4-Dichlorobenzyl)oxy)-1,1-dioxido-2,3-dihydro-1-benzothiophen-3-yl)acetic acid], for which the inhibition at 10 µM came to 79%. For the compound `CCOC(=O)CNC(=O)Cc1csc2cc(OCc3ccc(Cl)cc3Cl)ccc12` [Example 53, Ethyl N-((6-((2,4-dichlorobenzyl)oxy)-1-benzothiophen-3-yl)acetyl)glycinate], the inhibition at 10 µM turned out to be 56%.

`COC(=O)[C@H](CO)NC(=O)Cc1csc2cc(OCc3ccc(Cl)cc3Cl)ccc12` [Example 54, Methyl N-((6-((2,4-dichlorobenzyl)oxy)-1-benzothiophen-3-yl)acetyl)serinate]: the inhibition at 10 µM worked out at 86%. Take `O=C(O)CNC(=O)Cc1csc2cc(OCc3ccc(Cl)cc3Cl)ccc12` [Example 55, N-((6-((2,4-Dichlorobenzyl)oxy)-1-benzothiophen-3-yl)acetyl)glycine]: the inhibition at 10 µM was 95%. With `O=C(Cc1csc2cc(OCc3ccc(Cl)cc3Cl)ccc12)N[C@@H](CO)C(=O)O` [Example 56, N-((6-((2,4-Dichlorobenzyl)oxy)-1-benzothiophen-3-yl)acetyl)serine] the figure was 97%; with `O=C(O)Cc1csc2cc(SCc3ccc(Cl)cc3Cl)ccc12` [Example 80, (6-((2,4-Dichlorobenzyl)sulfanyl)-1-benzothiophen-3-yl)acetic acid], 99.3%. In the case of `O=C(O)Cc1csc2cc(S(=O)(=O)Cc3ccc(Cl)cc3Cl)ccc12` [Example 83, (6-((2,4-Dichlorobenzyl)sulfonyl)-1-benzothiophen-3-yl)acetic acid], the inhibition at 10 µM amounted to 83%. `O=C(O)Cc1csc2cc([S+]([O-])Cc3ccc(Cl)cc3Cl)ccc12` (centres unmarked) [Example 84, (6-((2,4-Dichlorobenzyl)sulfinyl)-1-benzothiophen-3-yl)acetic acid]: the inhibition at 10 µM worked out at 67%. In the case of `Cc1nc(C(F)(F)F)ccc1COc1ccc2c(CC(=O)O)csc2c1` [Example 135, (6-((2-Methyl-6-(trifluoromethyl)pyridin-3-yl)methoxy)-1-benzothiophen-3-yl)acetic acid], the inhibition at 10 µM came to 93.1%. With `Cc1nc(C(F)(F)F)ncc1COc1ccc2c(CC(=O)O)csc2c1` [Example 137, (6-((4-Methyl-2-(trifluoromethyl)pyrimidin-5-yl)methoxy)-1-benzothiophen-3-yl)acetic acid] the figure was 97.3%; with `CCS(=O)(=O)NC(=O)Cc1csc2cc(OCc3ccc(Cl)cc3Cl)ccc12` [Example 138, 2-(6-((2,4-Dichlorobenzyl)oxy)-1-benzothiophen-3-yl)-N-(ethylsulfonyl)acetamide], 83.2%; with `Cc1nc(C(F)(F)F)ncc1COc1cc(C)c2c(CC(=O)O)csc2c1` [Example 140, (4-Methyl-6-((4-methyl-2-(trifluoromethyl)pyrimidin-5-yl)methoxy)-1-benzothiophen-3-yl)acetic acid], 100%. `Cc1ccc(CCc2ccc3c(CC(=O)O)csc3c2)c(C)n1` [Example 182, (6-(2-(2,6-Dimethylpyridin-3-yl)ethyl)-1-benzothiophen-3-yl)acetic acid]: the inhibition at 10 µM was 97.3%. With `Cc1ccc(/C=C/c2ccc3c(CC(=O)O)csc3c2)c(C)n1` [Example 183, (6-((E)-2-(2,6-dimethylpyridin-3-yl)vinyl)-1-benzothiophen-3-yl)acetic acid] the figure was 83.1%; with `CC(=O)NCCc1coc2cc(OCc3ccc(Cl)cc3Cl)ccc12` [Example 196, N-(2-(6-(2,4-Dichlorobenzyloxy)-1-benzofuran-3-yl)ethyl)acetamide], 73%.

Turning to `CC(=O)NCC[C@@H]1COc2cc(OCc3ccc(Cl)cc3Cl)ccc21` [Example 197, N-(2-((3S)-6-((2,4-Dichlorobenzyl)oxy)-2,3-dihydro-1-benzofuran-3-yl)ethyl)acetamide], the inhibition at 10 µM turned out to be 69%. In the case of `CCC(=O)NCC[C@@H]1COc2cc(OCc3ccc(Cl)cc3Cl)ccc21` [Example 198, N-(2-((3S)-6-((2,4-Dichlorobenzyl)oxy)-2,3-dihydro-1-benzofuran-3-yl)ethyl)propanamide], the inhibition at 10 µM was 59%. `O=C(O)C[C@@H]1COc2cc(OCc3ccc(Cl)cc3Cl)ccc21` [Example 262, ((3S)-6-((2,4-Dichlorobenzyl)oxy)-2,3-dihydro-1-benzofuran-3-yl)acetic acid]: the inhibition at 10 µM is 93%. With `O=C(O)C[C@H]1COc2cc(OCc3ccc(Cl)cc3Cl)ccc21` [Example 263, ((3R)-6-((2,4-Dichlorobenzyl)oxy)-2,3-dihydro-1-benzofuran-3-yl)acetic acid] the figure was 86%. With `O=C(O)C1(CO)COc2cc(OCc3ccc(Cl)cc3Cl)ccc21` (centres unmarked) [Example 279, 6-((2,4-Dichlorobenzyl)oxy)-3-(hydroxymethyl)-2,3-dihydro-1-benzofuran-3-carboxylic acid] the figure was 81%; with `COCC1(C(=O)O)COc2cc(OCc3ccc(Cl)cc3Cl)ccc21` (centres unmarked) [Example 281, 6-((2,4-Dichlorobenzyl)oxy)-3-(methoxymethyl)-2,3-dihydro-1-benzofuran-3-carboxylic acid], 85%; with `Cc1ccc(COc2cc(C)c3c(c2C)OCC3CC(=O)O)c(C)n1` (centres unmarked) [Example 289, (6-((2,6-Dimethylpyridin-3-yl)methoxy)-4,7-dimethyl-2,3-dihydro-1-benzofuran-3-yl)acetic acid], 94.8%. Turning to `Cc1cc(OCc2ccc(Cl)cc2Cl)c(C)c2c1C(CC(=O)O)CO2` (centres unmarked) [Example 291, (6-((2,4-Dichlorobenzyl)oxy)-4,7-dimethyl-2,3-dihydro-1-benzofuran-3-yl)acetic acid], the inhibition at 10 µM came out at 96.2%.

As to `COC(=O)Cc1csc2cc(OCc3cc(C(F)(F)F)nn3C)cc(F)c12` [Example 302, Methyl (4-fluoro-6-((1-methyl-3-(trifluoromethyl)-1H-pyrazol-5-yl)methoxy)-1-benzothiophen-3-yl)acetate], the inhibition at 10 µM stood at 99.9%. Take `Cn1nc(C(F)(F)F)cc1COc1cc(F)c2c(CC(=O)O)csc2c1` [Example 303, (4-Fluoro-6-((1-methyl-3-(trifluoromethyl)-1H-pyrazol-5-yl)methoxy)-1-benzothiophen-3-yl)acetic acid]: the inhibition at 10 µM stood at 104%. Regarding `COC(=O)Cc1csc2cc(OCc3ccc(C(F)(F)F)nc3C)cc(F)c12` [Example 304, Methyl (4-fluoro-6-((2-methyl-6-(trifluoromethyl)pyridin-3-yl)methoxy)-1-benzothiophen-3-yl)acetate], the inhibition at 10 µM stood at 94.9%.

Values taken from US9238639B2, “Aromatic ring compound” (TAKEDA PHARMACEUTICAL COMPANY LIMITED, priority 2012, dated 2016).
